Test results from patent publication US5776939A, “Drug resistance and multidrug resistance modulators” (Eli Lilly and Company, priority 1997, dated 1998).

Experiments:
[1] = in vivo; cited from earlier work
multidrug resistance = conditions: in vivo; cited from earlier work
p-glycoprotein = p-glycoprotein (Homo sapiens, UniProt P08183); conditions: for EC50: cem/vlb100 cells, 72 h; for Rev100 (lowest concentration of modifier which can achieve 100% reversal activity): human, 4320 min
Description: When in vitro testing for multidrug resistance modulation with cancer chemotherapeutic drugs is conducted compounds are evaluated for their ability to show multidrug resistance modulation when coadministered with an oncolytic.
The cells can be maintained in SMEM medium supplemented with 10% FBS and 2 mM L-glutamine in a humidified incubator with 95% air and 5% C02. Cell number can be determined using a Coulter Counter model ZM. Cells can be subcultured every 3-4 days.
Cell viability can be determined using a modified MTT dye reduction method (Denziot, F., Lang, R., "Rapid colorimetric assay for cell growth and survival modifications to the tetrazolium procedure giving improved sensitivity and reliability", J. Immunological Methods, 89, 271-277, (1986)). A brief description of this method is as follows: cells are harvested during the logarithmic growth phase, and seeded in 96-well serocluster plates at 7.5×10^3 cells/well and cultured for 72 hours in the presence of serially diluted oncolytics (VLB, DOX, VP-16 and Taxol®)±modulators. A single well assay is conducted using a fixed concentration of VLB (4 ng/ml) and modulator (5μM). The cytotoxicity of the modulator alone, at the same concentration is also determined. Modulators are prepared as 2 mM stocks in DMSO and added to the wells to give final concentrations ranging from 5 pM to 0.5 WM. After 72 hours, 20 µl of freshly prepared MTT (5 mg/ml in Dulbecco's phosphate buffered saline pH 7.5) is added to each well and placed for 4 hours in a 37° C. incubator. Cells are pelleted at 1800 R.P.M. for 10 minutes in a Sorvall RT6000B centrifuge. After centrifugation, 70 μl of medium is carefully removed from each well, and 100 µl of 2- propanol/0.04 N HC1 is added to dissolve the blue formazan stained cells. Cells are resuspended 5-10 times with a multipipettor or until no particulate matter was visible. Plates are immediately read on a Yitertek MCC/340 microplate reader (Flow Laboratories (McLean, VA) with a wavelength of 570 nm and a reference wavelength of 630 nm). Controls are measured in quadruplicate and modulators in duplicate.
IC50 's are calculated from semilog dose response curves in the presence and absence of modulators for both the parent and resistant cell lines. The fold shift is calculated as the IC50 for cells treated with oncolytic alone divided by the IC50 for cells treated with oncolytic+modulator.

drug-resistant malaria = conditions: in vitro; cited from earlier work

Chain of p-glycoprotein (P08183 whole entry): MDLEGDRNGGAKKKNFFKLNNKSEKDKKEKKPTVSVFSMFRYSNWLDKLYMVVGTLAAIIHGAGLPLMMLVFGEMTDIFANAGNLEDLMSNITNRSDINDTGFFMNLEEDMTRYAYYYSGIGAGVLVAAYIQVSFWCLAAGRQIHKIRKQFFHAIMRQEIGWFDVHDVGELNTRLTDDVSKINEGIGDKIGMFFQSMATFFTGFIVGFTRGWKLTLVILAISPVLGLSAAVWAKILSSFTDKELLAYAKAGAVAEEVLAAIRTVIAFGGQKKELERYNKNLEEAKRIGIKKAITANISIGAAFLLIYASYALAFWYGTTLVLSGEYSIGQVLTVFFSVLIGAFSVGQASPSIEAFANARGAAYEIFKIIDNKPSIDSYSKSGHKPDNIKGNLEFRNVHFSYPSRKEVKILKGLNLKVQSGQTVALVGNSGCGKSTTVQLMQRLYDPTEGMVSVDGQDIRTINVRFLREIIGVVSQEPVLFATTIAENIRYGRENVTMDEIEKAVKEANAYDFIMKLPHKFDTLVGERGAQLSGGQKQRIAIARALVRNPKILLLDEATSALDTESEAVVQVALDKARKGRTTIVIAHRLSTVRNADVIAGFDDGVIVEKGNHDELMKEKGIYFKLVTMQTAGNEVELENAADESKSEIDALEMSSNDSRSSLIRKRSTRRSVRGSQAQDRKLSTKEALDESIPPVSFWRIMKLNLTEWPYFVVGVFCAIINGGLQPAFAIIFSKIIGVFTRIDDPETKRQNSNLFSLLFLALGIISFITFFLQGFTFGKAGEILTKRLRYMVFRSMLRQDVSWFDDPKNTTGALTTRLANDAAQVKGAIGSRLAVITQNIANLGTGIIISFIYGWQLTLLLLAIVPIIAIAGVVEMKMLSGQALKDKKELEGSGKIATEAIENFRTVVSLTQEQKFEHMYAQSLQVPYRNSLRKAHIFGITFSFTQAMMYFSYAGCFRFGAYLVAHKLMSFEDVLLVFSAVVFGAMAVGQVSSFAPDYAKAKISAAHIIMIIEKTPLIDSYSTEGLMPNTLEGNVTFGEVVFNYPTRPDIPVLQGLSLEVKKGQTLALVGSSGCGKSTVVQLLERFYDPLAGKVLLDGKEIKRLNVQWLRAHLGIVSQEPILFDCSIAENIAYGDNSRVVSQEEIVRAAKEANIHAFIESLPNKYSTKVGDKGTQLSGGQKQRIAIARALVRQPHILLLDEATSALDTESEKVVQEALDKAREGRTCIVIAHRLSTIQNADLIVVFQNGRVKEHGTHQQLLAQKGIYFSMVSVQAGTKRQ

Row | MDR Reversal Activity (p-glycoprotein) | EC50 (p-glycoprotein) [nM] | Rev100 (lowest concentration of modifier which can achieve 100% reversal activity) (p-glycoprotein) [µM] | SMILES | oral bioavailability [1] | dose required to be effective as a multidrug resistance modulator (multidrug resistance) | effect on drug-resistant malaria (drug-resistant malaria)
1 |  |  |  | O=C(C(c1ccccc1)c1ccccc1)N1CCN(CC(O)COc2cccc3ncccc23)CC1 (stereo not drawn) [MS-209] | better | higher doses | 
2 | potent | 1000 | > 1.0 | OC(CCc1cccc2ncccc12)CN1CCN([C@@H]2c3ccccc3[C@@H]3[C@H](c4ccccc42)C3(F)F)CC1 (stereo partly drawn) [Example 1e, anti-5-{1-(4-(10,11-difluorocyclopropyldibenzosuber-5-yl)piperazin-1-yl)-2(R,S)-hydroxybut-4-yl}quinoline·3HC1] |  |  | 
3 | potent | 250 | 0.50 | O[C@@H](CSc1cccc2ncccc12)CN1CCN([C@@H]2c3ccccc3[C@@H]3[C@H](c4ccccc42)C3(F)F)CC1 [Example 2b, anti-5-{l-(4-(10,11-difluorocyclopropyldi-benzosuber-5-yl)piperazin-1-yl)-2(R)-hydroxyprop-3-ylthio}quinoline·3HC1] |  |  | 
4 |  |  |  | COc1ccc(CCN(C)CCCC(C#N)(c2ccc(OC)c(OC)c2)C(C)C)cc1OC (stereo not drawn) [verapamil] |  |  | effective
